Our source for the EC50 values is patent publication US9499550B2 (BRISTOL-MYERS SQUIBB COMPANY, priority 2012, dated 2016).

The structures appear in SMILES notation. Where two headings read alike, the source gives them in different places. Some results are limits rather than exact numbers.

One may read the EC50 as the concentration at which the effect is half-maximal.

For test [1], the system named is HCV genotype 1b (Con1) replicon in HUH-7 cells. The test can be described thus: HCV replicon luciferase reporter assay, genotype 1b. In kind it is cell-based. To be noted: Hepatitis C virus, Huh-7, 72 h, HCV genotype 1b replicon luciferase, 3 days incubation. Put shortly: (§1)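 Replicon inhibition for both genotypes was measured as Renilla luciferase signal (EnduRen, 7.5 μM final, 2 h) after 3-day, 37° C exposure of replicon-bearing HUH-7 cells in 4% FCS DMEM, 0.5% DMSO. The 1b construct carries S1179I; the 1a H77 construct carries P1496L and S2204I. Twenty-point, 3-fold dilutions were fitted four-parametrically for EC50, and CC50 was taken from multiplexed Cell Titer-Blue.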

The subject of test [2] is HCV genotype 1a (H77 strain) replicon in HUH-7 cells. The test can be described thus: HCV replicon luciferase reporter assay, genotype 1a. In kind it is cell-based. To be noted: Hepatitis C virus, Huh-7, 72 h, HCV genotype 1a replicon luciferase, 3 days incubation. Put shortly: as §1
For orientation: A replicon is a self-replicating genome or part of one, used to study replication in cells.

As for `CCn1nc(O[C@@H]2C[C@H]3C(=O)N[C@]4(C(=O)NS(=O)(=O)C5CC5)C[C@H]4/C=C\CC[C@@H](C)C[C@@H](C)[C@H](NC(=O)O[C@@H]4C[C@@H]5C[C@@H]5C4)C(=O)N3C2)c2ccccc2c1=O` [Compound 5070, (1R,3r,5S)-bicyclo[3.1.0]hexan-3-yl((2R,6S,7R,9R,13aS,14aR,16aS,Z)-14a-((cyclopropylsulfonyl)carbamoyl)-2-((3-ethyl-4-oxo-3,4-dihydrophthalazin-1-yl)oxy)-7,9-dimethyl-5,16-dioxo-1,2,3,5,6,7,8,9,10,11,13a,14,14a,15,16,16a-hexadecahydrocyclopropa[e]pyrrolo[1,2-a][1,4]diazacyclopentadecin-6-yl)carbamate], the EC50 is under 5.46 nM in test [1] (read-out: LE_1b (EC50, range)) and 4.82 to 103 nM in test [2] (read-out: LE_1a (EC50, range)).
As for `CCn1nc(O[C@@H]2C[C@H]3C(=O)N[C@]4(C(=O)NS(=O)(=O)C5CC5)C[C@H]4/C=C\CC[C@H](C)C[C@@H](C)[C@H](NC(=O)NC(C)(C)C)C(=O)N3C2)c2ccccc2c1=O` [Compound 5071, (2R,6S,7R,9S,13aS,14aR,16aS,Z)-6-(3-(tert-butyl)ureido)-N-(cyclopropylsulfonyl)-2-((3-ethyl-4-oxo-3,4-dihydrophthalazin-1-yl)oxy)-7,9-dimethyl-5,16-dioxo-1,2,3,5,6,7,8,9,10,11,13a,14,14a,15,16,16a-hexadecahydrocyclopropa[e]pyrrolo[1,2-a][1,4]diazacyclopentadecine-14a-carboxamide], the EC50 is 1000 nM in test [1] (read-out: LE_1b (EC50)); over 87.4 nM in test [1] (read-out: LE_1b (EC50, range)); at least 1000 nM in test [2] (read-out: LE_1a (EC50)); over 87.4 nM in test [2] (read-out: LE_1a (EC50, range)).
For the molecule `CCn1nc(O[C@@H]2C[C@H]3C(=O)N[C@]4(C(=O)NS(=O)(=O)C5CC5)C[C@H]4/C=C\CC[C@@H](C)C[C@@H](C)[C@H](NC(=O)NC(C)(C)C)C(=O)N3C2)c2ccccc2c1=O` [Compound 5072, (2R,6S,7R,9R,13aS,14aR,16aS,Z)-6-(3-(tert-butyl)ureido)-N-(cyclopropylsulfonyl)-2-((3-ethyl-4-oxo-3,4-dihydrophthalazin-1-yl)oxy)-7,9-dimethyl-5,16-dioxo-1,2,3,5,6,7,8,9,10,11,13a,14,14a,15,16,16a-hexadecahydrocyclopropa[e]pyrrolo[1,2-a][1,4]diazacyclopentadecine-14a-carboxamide], the EC50 in test [1] (read-out: LE_1b (EC50, range)) was 4.82 to 103 nM; in test [2] (read-out: LE_1a (EC50, range)), over 87.4 nM.
`CCn1nc(O[C@@H]2C[C@H]3C(=O)N[C@]4(C(=O)NS(=O)(=O)C5CC5)C[C@H]4/C=C\CC[C@H](C)C[C@@H](C)[C@H](NC(=O)c4ccc(N(C)C)cc4)C(=O)N3C2)c2ccccc2c1=O` [Compound 5073, (2R,6S,7R,9S,13aS,14aR,16aS,Z)—N-(cyclopropylsulfonyl)-6-(4-(dimethylamino)benzamido)-2-((3-ethyl-4-oxo-3,4-dihydrophthalazin-1-yl)oxy)-7,9-dimethyl-5,16-dioxo-1,2,3,5,6,7,8,9,10,11,13a,14,14a,15,16,16a-hexadecahydrocyclopropa[e]pyrrolo[1,2-a][1,4]diazacyclopentadecine-14a-carboxamide]: the EC50 in test [1] (read-out: LE_1b (EC50, range)) is over 87.4 nM; in test [2] (read-out: LE_1a (EC50, range)) it was over 87.4 nM.
Regarding `CCn1nc(O[C@@H]2C[C@H]3C(=O)N[C@]4(C(=O)NS(=O)(=O)C5CC5)C[C@H]4/C=C\CC[C@@H](C)C[C@@H](C)[C@H](NC(=O)c4ccc(N(C)C)cc4)C(=O)N3C2)c2ccccc2c1=O` [Compound 5074, (2R,6S,7R,9R,13aS,14aR,16aS,Z)—N-(cyclopropylsulfonyl)-6-(4-(dimethylamino)benzamido)-2-((3-ethyl-4-oxo-3,4-dihydrophthalazin-1-yl)oxy)-7,9-dimethyl-5,16-dioxo-1,2,3,5,6,7,8,9,10,11,13a,14,14a,15,16,16a-hexadecahydrocyclopropa[e]pyrrolo[1,2-a][1,4]diazacyclopentadecine-14a-carboxamide], the EC50 in test [1] (read-out: LE_1b (EC50, range)) lay within 4.82 to 103 nM; in test [2] (read-out: LE_1a (EC50, range)) it was 4.82 to 103 nM.
With `CCn1nc(O[C@@H]2C[C@H]3C(=O)N[C@]4(C(=O)NS(=O)(=O)C5CC5)C[C@H]4/C=C\CC[C@H](C)C[C@@H](C)[C@H](NC(=O)C(=O)N(C)C)C(=O)N3C2)c2ccccc2c1=O` [Compound 5075, N1-((2R,6S,7R,9S,13aS,14aR,16aS,Z)-14a-((cyclopropylsulfonyl)carbamoyl)-2-((3-ethyl-4-oxo-3,4-dihydrophthalazin-1-yl)oxy)-7,9-dimethyl-5,16-dioxo-1,2,3,5,6,7,8,9,10,11,13a,14,14a,15,16,16a-hexadecahydrocyclopropa[e]pyrrolo[1,2-a][1,4]diazacyclopentadecin-6-yl)-N2,N2-dimethyloxalamide], the EC50 was 1000 nM in test [1] (read-out: LE_1b (EC50)); over 87.4 nM in test [1] (read-out: LE_1b (EC50, range)); at least 1000 nM in test [2] (read-out: LE_1a (EC50)); over 87.4 nM in test [2] (read-out: LE_1a (EC50, range)).
In the case of `CCn1nc(O[C@@H]2C[C@H]3C(=O)N[C@]4(C(=O)NS(=O)(=O)C5CC5)C[C@H]4/C=C\CC[C@@H](C)C[C@@H](C)[C@H](NC(=O)C(=O)N(C)C)C(=O)N3C2)c2ccccc2c1=O` [Compound 5076, N1-((2R,6S,7R,9R,13aS,14aR,16aS,Z)-14a-((cyclopropylsulfonyl)carbamoyl)-2-((3-ethyl-4-oxo-3,4-dihydrophthalazin-1-yl)oxy)-7,9-dimethyl-5,16-dioxo-1,2,3,5,6,7,8,9,10,11,13a,14,14a,15,16,16a-hexadecahydrocyclopropa[e]pyrrolo[1,2-a][1,4]diazacyclopentadecin-6-yl)-N2,N2-dimethyloxalamide], the EC50 in test [1] (read-out: LE_1b (EC50, range)) was over 87.4 nM; in test [2] (read-out: LE_1a (EC50, range)), over 87.4 nM.
Turning to `CCn1nc(O[C@@H]2C[C@H]3C(=O)N[C@]4(C(=O)NS(=O)(=O)C5(CF)CC5)C[C@H]4/C=C\CC[C@H](C)C[C@@H](C)[C@H](NC(=O)OC(C)(C)C(F)(F)F)C(=O)N3C2)c2ccccc2c1=O` [Compound 5077], the EC50 in test [1] (GETYPE1B, read-out: LE_1b (EC50, range)) lay in the range of 4.82 to 103 nM; in test [2] (GETYPE1A, read-out: LE_1a (EC50, range)), 4.82 to 103 nM.
For the molecule `CCCOc1cnc(O[C@@H]2C[C@H]3C(=O)N[C@]4(C(=O)NS(=O)(=O)C5(C)CC5)C[C@H]4/C=C\CC[C@H](C)C[C@@H](C)[C@H](NC(=O)OC(C)(C)C)C(=O)N3C2)c2ccccc12` [Compound 5078, tert-butyl ((2R,6S,7R,9S,13aS,14aR,16aS,Z)-7,9-dimethyl-14a-(((1-methylcyclopropyl)sulfonyl)carbamoyl)-5,16-dioxo-2-((4-propoxyisoquinolin-1-yl)oxy)-1,2,3,5,6,7,8,9,10,11,13a,14,14a,15,16,16a-hexadecahydrocyclopropa[e]pyrrolo[1,2-a][1,4]diazacyclopentadecin-6-yl)carbamate], the EC50 was 8.73 nM in test [1] (read-out: LE_1b (EC50)); 4.82 to 103 nM in test [1] (read-out: LE_1b (EC50, range)); 28.9 nM in test [2] (read-out: LE_1a (EC50)); 4.82 to 103 nM in test [2] (read-out: LE_1a (EC50, range)).
In the case of `CCCOc1cnc(O[C@@H]2C[C@H]3C(=O)N[C@]4(C(=O)NS(=O)(=O)C5(C)CC5)C[C@H]4/C=C\CC[C@@H](C)C[C@@H](C)[C@H](NC(=O)OC(C)(C)C)C(=O)N3C2)c2ccccc12` [Compound 5079, tert-butyl ((2R,6S,7R,9R,13aS,14aR,16aS,Z)-7,9-dimethyl-14a-(((1-methylcyclopropyl)sulfonyl)carbamoyl)-5,16-dioxo-2-((4-propoxyisoquinolin-1-yl)oxy)-1,2,3,5,6,7,8,9,10,11,13a,14,14a,15,16,16a-hexadecahydrocyclopropa[e]pyrrolo[1,2-a][1,4]diazacyclopentadecin-6-yl)carbamate], the EC50 in test [1] (read-out: LE_1b (EC50, range)) is under 5.46 nM; in test [2] (read-out: LE_1a (EC50, range)) it was under 5.46 nM.
With `CCCOc1cnc(O[C@@H]2C[C@H]3C(=O)N[C@]4(C(=O)NS(=O)(=O)C5(C)CC5)C[C@H]4/C=C\CC[C@H](C)C[C@@H](C)[C@H](NC(=O)O[C@@H]4C[C@@H]5C[C@@H]5C4)C(=O)N3C2)c2ccccc12` [Compound 5080, (1R,3r,5S)-bicyclo[3.1.0]hexan-3-yl((2R,6S,7R,9S,13aS,14aR,16aS,Z)-7,9-dimethyl-14a-(((1-methylcyclopropyl)sulfonyl)carbamoyl)-5,16-dioxo-2-((4-propoxyisoquinolin-1-yl)oxy)-1,2,3,5,6,7,8,9,10,11,13a,14,14a,15,16,16a-hexadecahydrocyclopropa[e]pyrrolo[1,2-a][1,4]diazacyclopentadecin-6-yl)carbamate], the EC50 was 4.82 to 103 nM in test [1] (read-out: LE_1b (EC50, range)) and over 87.4 nM in test [2] (read-out: LE_1a (EC50, range)).
For the molecule `CCCOc1cnc(O[C@@H]2C[C@H]3C(=O)N[C@]4(C(=O)NS(=O)(=O)C5(C)CC5)C[C@H]4/C=C\CC[C@@H](C)C[C@@H](C)[C@H](NC(=O)O[C@@H]4C[C@@H]5C[C@@H]5C4)C(=O)N3C2)c2ccccc12` [Compound 5081, (1R,3r,5S)-bicyclo[3.1.0]hexan-3-yl((2R,6S,7R,9R,13aS,14aR,16aS,Z)-7,9-dimethyl-14a-(((1-methylcyclopropyl)sulfonyl)carbamoyl)-5,16-dioxo-2-((4-propoxyisoquinolin-1-yl)oxy)-1,2,3,5,6,7,8,9,10,11,13a,14,14a,15,16,16a-hexadecahydrocyclopropa[e]pyrrolo[1,2-a][1,4]diazacyclopentadecin-6-yl)carbamate], the EC50 in test [1] (read-out: LE_1b (EC50, range)) was under 5.46 nM; in test [2] (read-out: LE_1a (EC50, range)) it was 4.82 to 103 nM.
